From patent US11459308B2 (priority 2016, dated 2022)

Experiments:
in vitro = details: African green monkey
[1] = test system: authentic EBOV (EBOV-Zaire 1995); experiment: microbe, parasite or virus in culture; type: cell-based, Ebola virus; details: Zaire ebolavirus, Vero, 48 h, read-out: infectious EBOV-Z IC50
rVSV-EBOV GP = experiment: microbe, parasite or virus in culture; type: cell-based, Zaire Ebolavirus; details: Zaire ebolavirus, read-out: rVSV-EBOV IC50

`O=[N+]([O-])c1ccc(N2CCN(Cc3ccccc3)CC2)cc1NC(c1ccccc1)c1ccccc1` [MBX 3569, 1-(benzhydrylamino)-5-(4-benzylpiperazin-1-yl)-2-nitrobenzene] gave a CC50 (in vitro) of over 200 µM, an IC50 [1] of over 20 µM and an IC50 (rVSV-EBOV GP) of over 25 µM.
Compound `CC(C)N(CCNc1ccc2ncn(C(c3ccccc3)c3ccccc3)c2c1)C(C)C` [MBX 4253, N1-(1-benzhydryl-1H-benzo[d]imidazol-6-yl)-N2,N2-diisopropylethane-1,2-diamine 2,2,2-trifluoroacetate] has a CC50 (in vitro) of 95 µM, an IC50 [1] of 1.85 µM and an IC50 (rVSV-EBOV GP) of 1.3 µM.
For `CC(C)(C)N1CCCN(c2ccc([N+](=O)[O-])c(NC(c3ccccc3)c3ccccc3)c2)CC1` [MBX 3748, 2-(benzhydrylamino)-4-[4-(tert-butyl)-1,4-diazepan-1-yl]-1-nitrobenzene], the CC50 (in vitro) was 23 µM, the IC50 [1] was 0.7 µM and the IC50 (rVSV-EBOV GP) was 0.25 µM.
`CN1CCN(c2ccc3ncn(C(c4ccccc4)c4ccccc4)c3c2)CC1` [MBX 3540, 1-benzhydryl-6-(4-methylpiperazin-1-yl)benzo[d]imidazole] gave a CC50 (in vitro) of 58 µM, an IC50 [1] of 0.9 µM and an IC50 (rVSV-EBOV GP) of 0.8 µM.
`CCCCN1CCN(c2ccc([N+](=O)[O-])c(NC(c3ccccc3)c3ccccc3)c2)CC1` [MBX 3559, 1-(benzhydrylamino)-5-(4-butylpiperazin-1-yl)-2-nitrobenzene] showed a CC50 (in vitro) of over 200 µM, an IC50 [1] of 1.7 µM and an IC50 (rVSV-EBOV GP) of 3.6 µM.
With `O=[N+]([O-])c1ccc(N2CCN(C3CCCC3)CC2)cc1NC(c1ccccc1)c1ccccc1` [MBX 3580, 1-(benzhydrylamino)-5-(4-cyclopentylpiperazin-1-yl)-2-nitrobenzene] the CC50 (in vitro) was over 100 µM, the IC50 [1] was 2.7 µM and the IC50 (rVSV-EBOV GP) was 1.8 µM.
Work on `CN(C)CCCNc1ccc2ncn(C(c3ccccc3)c3ccccc3)c2c1` [MBX 4252, N^1-(1-benzhydryl-1H-benzo[d]imidazol-6-yl)-N^3,N^3-dimethylpropane-1,3-diamine] yielded a CC50 (in vitro) of 50 µM, an IC50 [1] of 8.62 µM and an IC50 (rVSV-EBOV GP) of 3.93 µM.
`CC1CN(c2ccc3ncn(C(c4ccccc4)c4ccccc4)c3c2)CCN1C` (stereo not drawn) [MBX 4212, 1-benzhydryl-6-(3,4-dimethylpiperazin-1-yl)-1H-benzo[d]imidazole] showed a CC50 (in vitro) of 170 µM, an IC50 [1] of 0.53 µM and an IC50 (rVSV-EBOV GP) of 1.6 µM.
In the case of `CN1CCN(c2ccc([N+](=O)[O-])c(NC(c3ccccc3)c3cccc(Cl)c3)c2)CC1` (stereo not drawn) [MBX 3643, 2-[(3-chlorophenyl)(phenyl)methylamino]-4-(4-methylpiperazin-1-yl)nitrobenzene], the CC50 (in vitro) is reported as 21 µM, the IC50 [1] is reported as over 20 µM and the IC50 (rVSV-EBOV GP) is reported as 0.85 µM.
Compound `O=[N+]([O-])c1ccc(N2CCN(Cc3ccccn3)CC2)cc1NC(c1ccccc1)c1ccccc1` [MBX 3558, 1-(benzhydrylamino)-5-[4-(pyridin-2-ylmethyl)piperazin-1-yl]-2-nitrobenzene] has a CC50 (in vitro) of over 200 µM, an IC50 [1] of 2.8 µM and an IC50 (rVSV-EBOV GP) of 4 µM.
Work on `CN1CCN(c2cccc(NC(c3ccccc3)c3ccccc3)c2)CC1` [MBX 3567, 1-(benzhydrylamino)-3-(4-methylpiperazin-1-yl)benzene] yielded a CC50 (in vitro) of 19 µM, an IC50 [1] of 4.1 µM and an IC50 (rVSV-EBOV GP) of 2.5 µM.
Work on `O=[N+]([O-])c1ccc(N2CCN(CCCO)CC2)cc1NC(c1ccccc1)c1ccccc1` [MBX 3610, 2-(benzhydrylamino)-4-[4-(3-hydroxypropyl)piperazin-1-yl]nitrobenzene] yielded a CC50 (in vitro) of 17 µM, an IC50 [1] of 0.6 µM and an IC50 (rVSV-EBOV GP) of 0.6 µM.
With `O=[N+]([O-])c1ccc(N2CCN(Cc3cccs3)CC2)cc1NC(c1ccccc1)c1ccccc1` [MBX 3576, 1-(benzhydrylamino)-5-[4-(thiophen-2-ylmethyl)piperazin-1-yl]-2-nitrobenzene] the CC50 (in vitro) was over 200 µM, the IC50 [1] was over 20 µM and the IC50 (rVSV-EBOV GP) was 5.8 µM.
With `Cc1cccc(C(Nc2cc(N3CCN(C)CC3)ccc2[N+](=O)[O-])c2ccccc2)c1` (stereo not drawn) [MBX 3634, 2-[phenyl(m-tolyl)methylamino]-4-(4-methylpiperazin-1-yl)nitrobenzene] the CC50 (in vitro) was over 100 µM, the IC50 [1] was 3 µM and the IC50 (rVSV-EBOV GP) was 3.4 µM.
